Source: paper PMC10222328 (Pharmaceuticals, 2023)

Experiments:
[1] = tested on: carrageenan-induced rat paw edema; experiment: Carrageenan-induced rat paw edema model; format: in vivo, Wistar albino rats; conditions: for Rat paw thickness: mean ± SD; for inhibition in vivo at 2.5 mg/kg / inhibition in vivo at 5 mg/kg / inhibition in vivo at 10 mg/kg: Rattus norvegicus, po
Procedure: In vivo assessment of anti-inflammatory activity of compounds 1–7 was conducted in the carrageenan-induced rat paw edema model. Inflammation in all rats was induced by an intraplantar injection of […] of 0.5% carrageenan saline in the left hind paw. Two hundred male Wistar albino rats (180–210 g) were divided into seven experimental (n = 168 rats, 8 rats per subgroup) and two control groups (n = 32 rats, 8 rats per subgroup).
Experimental groups involved rats that received compounds 1–7, and they were divided into three subgroups: rats received compounds 1–7 per os in three doses (2.5 mg/kg, 5 mg/kg, and 10 mg/kg) dissolved in 1% DMSO for 60 min before inducing inflammation.
In order to quantify the anti-inflammatory effect, the thickness of the left paw tissue of each rat was measured at the following time intervals: immediately before inducing inflammation (moment 0) and 1, 2, 3, and 4 h (moments 1, 2, 3, and 4) after inflammation. Tissue thickness was measured in the middle of the rat paw using a digital vernier caliper (Aerospace, Beijing, China).

[2] = biological target: T1, 5-LOX (Homo sapiens, UniProt P09917); experiment: Fluorometric 5-LOX inhibitor screening kit; format: biochemical; conditions: mean ± standard error of two measurements; for inhibition at 10 µM: read-out: 5-LOX Percent of Inhibition
T1 construct: purchased Abcam, UK
T1 sequence (P09917 1-674): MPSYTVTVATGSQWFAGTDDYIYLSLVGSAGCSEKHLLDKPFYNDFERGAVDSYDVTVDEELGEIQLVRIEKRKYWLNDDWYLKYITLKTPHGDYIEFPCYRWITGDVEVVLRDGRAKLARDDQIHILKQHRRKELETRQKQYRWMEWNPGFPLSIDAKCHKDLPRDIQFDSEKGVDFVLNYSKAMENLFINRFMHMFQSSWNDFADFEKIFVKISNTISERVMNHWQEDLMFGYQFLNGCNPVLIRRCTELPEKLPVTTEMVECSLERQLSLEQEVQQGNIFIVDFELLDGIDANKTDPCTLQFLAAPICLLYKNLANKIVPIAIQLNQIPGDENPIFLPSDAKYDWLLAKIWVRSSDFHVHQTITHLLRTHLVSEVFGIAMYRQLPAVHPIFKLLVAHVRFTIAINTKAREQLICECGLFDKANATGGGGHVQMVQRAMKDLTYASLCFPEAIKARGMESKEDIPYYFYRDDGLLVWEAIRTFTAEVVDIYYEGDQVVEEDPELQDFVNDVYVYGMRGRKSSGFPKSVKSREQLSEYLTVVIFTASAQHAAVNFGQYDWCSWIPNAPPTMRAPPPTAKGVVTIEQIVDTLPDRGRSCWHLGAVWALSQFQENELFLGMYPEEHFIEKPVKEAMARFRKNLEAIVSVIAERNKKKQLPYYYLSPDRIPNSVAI
Procedure: COX-2 and 5-LOX inhibitory activities were tested using fluorometric COX-2 and 5-LOX inhibitor screening kits (Abcam, UK). These assays are based on the fluorometric detection of Prostaglandin G2 (a product generated by the COX enzyme) or on the fluorometric detection of intermediate generated by the 5-LOX enzyme. The experiments were conducted according to the manufacturers’ instructions.
For the determination of COX-2 inhibitory activity, tested compounds were dissolved in DMSO (5 mM stock solutions) and then diluted with the same solvent to obtain test solutions. Test solutions were further diluted 5X with COX assay buffer (2 µL of test solution and 8 µL COX assay buffer). […] Solvent control (SC) was prepared by adding 2 µL DMSO and 8 µL COX assay buffer, while sample (S) and enzyme control (EC) were prepared by adding 10 µL of diluted test solution and COX assay buffer, respectively, into assigned wells. For the determination of 5-LOX inhibitory activity, tested compounds were also dissolved in DMSO to prepare stock solutions with the same concentration (5mM), which were then diluted with the same solvent to obtain test solutions. Subsequently, test solutions were added to corresponding wells (2 µL).

[3] = Acute oral toxicity evaluation in rats; format: in vivo, Wistar albino rats; conditions: single oral dose 10 mg/kg, after 14 days, (absolute organ weight × 100%)/body weight
Procedure: Healthy male rats (n = 24, three rats per group, body weight 180–200 g) were used for conducting an acute oral toxicity study. Animals were divided into the following groups: a control group that included rats that received a single dose of 1% DMSO and experimental groups that involved rats that received compounds 1–7 in the single dose of 10 mg/kg.
After oral administration of the aforementioned agents, rats were kept in single cages and monitored during 14 days. Food and water intake, as well as body weight, were measured daily. All the behavioral changes and any signs of toxicity were monitored daily during 2-week protocol (fur and skin, eyes, salivation, respiration, urination (color), faeces consistency, somatomotor activity, and other alterations in behavior pattern). After accomplishing 14 days, animals were sacrificed and organ weight (liver, kidney, stomach, and heart) was recorded. Relative organ weight was calculated as follows:(absolute organ weight × 100%)/body weight of rat on the day of sacrifice.(1)

[4] = 2.5 mg/kg per os, 1 h after carrageenan
[5] = 2.5 mg/kg per os, 2 h after carrageenan
[6] = 2.5 mg/kg per os, 3 h after carrageenan
[7] = 2.5 mg/kg per os, 4 h after carrageenan
[8] = 5.0 mg/kg per os, 1 h after carrageenan
[9] = 5.0 mg/kg per os, 2 h after carrageenan
[10] = 5.0 mg/kg per os, 3 h after carrageenan
[11] = 5.0 mg/kg per os, 4 h after carrageenan
[12] = 10.0 mg/kg per os, 1 h after carrageenan
[13] = 10.0 mg/kg per os, 2 h after carrageenan
[14] = 10.0 mg/kg per os, 3 h after carrageenan
[15] = 10.0 mg/kg per os, 4 h after carrageenan
[16] = 1 h, 2.5 mg/kg per os, 1 h after carrageenan
[17] = 1 h, 5.0 mg/kg per os, 1 h after carrageenan
[18] = 1 h, 10.0 mg/kg per os, 1 h after carrageenan
[19] = 2 h, 2.5 mg/kg per os, 2 h after carrageenan
[20] = 2 h, 5.0 mg/kg per os, 2 h after carrageenan
[21] = 2 h, 10.0 mg/kg per os, 2 h after carrageenan
[22] = 3 h, 2.5 mg/kg per os, 3 h after carrageenan
[23] = 3 h, 5.0 mg/kg per os, 3 h after carrageenan
[24] = 3 h, 10.0 mg/kg per os, 3 h after carrageenan
[25] = 4 h, 2.5 mg/kg per os, 4 h after carrageenan
[26] = 4 h, 5.0 mg/kg per os, 4 h after carrageenan
[27] = 4 h, 10.0 mg/kg per os, 4 h after carrageenan

SMILES	Rat paw thickness [1, 4]	Rat paw thickness [1, 5]	Rat paw thickness [1, 6]	Rat paw thickness [1, 7]	Rat paw thickness [1, 8]	Rat paw thickness [1, 9]	Rat paw thickness [1, 10]	Rat paw thickness [1, 11]	Rat paw thickness [1, 12]	Rat paw thickness [1, 13]	Rat paw thickness [1, 15]	inhibition in vivo at 2.5 mg/kg [1, 16]	inhibition in vivo at 5 mg/kg [1, 17]	inhibition in vivo at 10 mg/kg [1, 18]	inhibition in vivo at 2.5 mg/kg [1, 19]	inhibition in vivo at 5 mg/kg [1, 20]	inhibition in vivo at 10 mg/kg [1, 21]	inhibition in vivo at 2.5 mg/kg [1, 22]	inhibition in vivo at 5 mg/kg [1, 23]	inhibition in vivo at 10 mg/kg [1, 24]	other results
CCOC(=O)C(Cc1ccccc1)NC(=S)NC(=O)C(C)c1ccc2cc(OC)ccc2c1 [Compound 6, Ethyl(((S)-2-(6-methoxynaphthalen-2-yl)propanoyl)carbamothioyl)-L-phenylalaninate]	6.17 ± 0.31 mm	5.87 ± 0.23 mm	5.37 ± 0.55 mm	4.93 ± 0.21 mm	6.47 ± 0.57 mm	6.17 ± 0.06 mm	5.77 ± 0.06 mm	5.27 ± 0.21 mm	6.20 ± 0.20 mm	6.17 ± 0.23 mm	5.03 ± 0.76 mm	11.8%	17.5%	21.6%	15.7%	21.8%	14.2%	26.9%	28.8%	47.1%	Rat paw thickness [1, 14]: 5.27 ± 0.72 mm; inhibition in vivo at 2.5 mg/kg [1, 25]: 37.9%; inhibition in vivo at 5 mg/kg [1, 26]: 44.7%; inhibition in vivo at 10 mg/kg [1, 27]: 49.4%; inhibition at 10 µM [2]: 23.6 ± 2.14%; Relative organ weight, heart [3]: 0.34 ± 0.02; Relative organ weight, kidney [3]: 0.35 ± 0.05; Relative organ weight, liver [3]: 3.01 ± 0.29; Relative organ weight, stomach [3]: 0.55 ± 0.03
CCOc1ccc(NC(=S)NC(=O)[C@@H](C)c2ccc3cc(OC)ccc3c2)cc1 [Compound 3, (S)-N-((4-ethoxyphenyl)carbamothioyl)-2-(6-methoxynaphthalen-2-yl)propanamide]	6.25 ± 0.21 mm	6.0 ± 0.57 mm	5.50 ± 0.42 mm	5.10 ± 0.14 mm	6.40 ± 0.79 mm	5.73 ± 0.38 mm	5.44 ± 0.28 mm	4.97 ± 0.42 mm	6.23 ± 0.25 mm	5.80 ± 0.26 mm	4.67 ± 0.38 mm	19.6%	6.53%	3.78%	21.8%	26.4%	12.6%	34.2%	28.6%	25.1%	Rat paw thickness [1, 14]: 5.27 ± 0.15 mm; inhibition in vivo at 2.5 mg/kg [1, 25]: 44.7%; inhibition in vivo at 5 mg/kg [1, 26]: 42.5%; inhibition in vivo at 10 mg/kg [1, 27]: 47 to 54%; inhibition at 10 µM [2]: 47 ± 4.32%; IC50 [2]: 9.52 ± 1.51 µM; Relative organ weight, heart [3]: 0.31 ± 0.03; Relative organ weight, kidney [3]: 0.32 ± 0.06; Relative organ weight, liver [3]: 2.85 ± 0.17; Relative organ weight, stomach [3]: 0.50 ± 0.05
COC(=O)[C@H](Cc1cn(C)c2ccccc12)NC(=S)NC(=O)[C@@H](C)c1ccc2cc(OC)ccc2c1 [Compound 7, Methyl-N^α-(((S)-2-(6-methoxynaphthalen-2-yl)propanoyl)carbamothioyl)-1-methyltryptophanate]	7.03 ± 0.15 mm	6.47 ± 0.21 mm	6.10 ± 0.20 mm	5.87 ± 0.21 mm	7.10 ± 0.17 mm	6.80 ± 0.20 mm	6.43 ± 0.32 mm	6.03 ± 0.61 mm	6.87 ± 0.25 mm	6.50 ± 0.36 mm	5.47 ± 0.38 mm	21.6%	24.4%	14.8%	38.7%	29.5%	21.8%	47%	36.1%	32.4%	Rat paw thickness [1, 14]: 6.03 ± 0.21 mm; inhibition in vivo at 2.5 mg/kg [1, 25]: 49.4%; inhibition in vivo at 5 mg/kg [1, 26]: 47.1%; inhibition in vivo at 10 mg/kg [1, 27]: 54.1%; inhibition at 10 µM [2]: 20.7 ± 4.19%; Relative organ weight, heart [3]: 0.33 ± 0.03; Relative organ weight, kidney [3]: 0.29 ± 0.03; Relative organ weight, liver [3]: 2.64 ± 0.46; Relative organ weight, stomach [3]: 0.50 ± 0.04
COc1ccc2cc([C@H](C)C(=O)NC(=S)Nc3ccc(C(C)=O)cc3)ccc2c1 [Compound 5, (S)-N-((4-acetylphenyl)carbamothioyl)-2-(6-methoxynaphthalen-2-yl)propanamide]	5.73 ± 0.12 mm	5.37 ± 0.25 mm	5.20 ± 0.20 mm	4.57 ± 0.15 mm	5.05 ± 0.07 mm	4.85 ± 0.07 mm	4.40 ± 0.14 mm	3.95 ± 0.07 mm	5.5 ± 0.71 mm	5.35 ± 0.64 mm	4.75 ± 0.49 mm	10.7%	19.6%	38.1%	17.2%	19.5%	37.9%	10.5%	28.8%	39.7%	inhibition in vivo at 2.5 mg/kg [1, 25]: 31%; inhibition in vivo at 5 mg/kg [1, 26]: 41.4%; inhibition in vivo at 10 mg/kg [1, 27]: 47 to 54%; inhibition at 10 µM [2]: 46.2 ± 4.87%; IC50 [2]: 16.7 ± 1.79 µM; Relative organ weight, heart [3]: 0.31 ± 0.03; Relative organ weight, kidney [3]: 0.30 ± 0.03; Relative organ weight, liver [3]: 2.97 ± 0.33; Relative organ weight, stomach [3]: 0.53 ± 0.04
